Assay: Analysis of additives in the multi-layered plastic container before and after sterilization by irradiation
Type: physicochemical
Details: After irradiation - dose of 25 kGy
Protocol: A physico-chemical study of the outer layers made of polypropylene before and after irradiation at 25 kGy was performed.

SMILES	Quantity of additives in polypropylene (ppm)
CC(C)(C)c1cc(CCC(=O)OCC(COC(=O)CCc2cc(C(C)(C)C)c(O)c(C(C)(C)C)c2)(COC(=O)CCc2cc(C(C)(C)C)c(O)c(C(C)(C)C)c2)COC(=O)CCc2cc(C(C)(C)C)c(O)c(C(C)(C)C)c2)cc(C(C)(C)C)c1O [IRGANOX 1010, pentaerythrityl tetrakis(3-(3,5-di-tert-butyl-4-hydroxyphenyl)-propionate)]	Not detected
CC(C)(C)c1ccc(OP(Oc2ccc(C(C)(C)C)cc2C(C)(C)C)Oc2ccc(C(C)(C)C)cc2C(C)(C)C)c(C(C)(C)C)c1 [IRGAPHOS 168, phosphite tris(2,4-bis(1,1-dimethylethyl)-phenyl)]	Not detected
CC(C)(C)c1cc(Cn2c(=O)n(Cc3cc(C(C)(C)C)c(O)c(C(C)(C)C)c3)c(=O)n(Cc3cc(C(C)(C)C)c(O)c(C(C)(C)C)c3)c2=O)cc(C(C)(C)C)c1O [IRGANOX 3114, 1,3,5-tris(3,5-di-tert-butyl-4-hydroxybenzyl)-s-triazine-2,4,6(1H,3H,5H)-trione]	Not detected

— US8802209B2, “Multi-layered plastic polymeric container for the storage of pharmaceutical compositions” (Ceva Santé Animale, priority 2007, dated 2014)
